# PMC11258486, “Phase 1 dose escalation study of the MDM2 inhibitor milademetan as monotherapy and in combination with azacitidine in patients with myeloid malignancies” (Cancer Medicine, 2024)
# Where a name gives a salt, the structure may show the parent alone.
# System: high‐risk MDS
# Assay: Treatment response in participants with high‐risk MDS (2006 International Working Group criteria)
# Format: in vivo, human
# Conditions: Full Analysis Set
# Procedure: Treatment efficacy was assessed according to the 2017 European Leukemia Net recommendations for AML[23] and the 2006 International Working Group response criteria for MDS.[24] In participants with AML, efficacy outcomes included complete remission (CR), CR with incomplete blood count recovery (CRi), composite complete remission (CRc; CR + CRi), morphologic leukemia‐free state (MLFS), partial remission (PR), overall response rate (CRc + MLFS+PR), stable disease (SD), and treatment failure. Bone marrow biopsies/aspirates were obtained from all participants with AML on Day 1 of Cycles 2 and 3 and once every cycle until response and on Day 1 of Cycles 6, 9, and 12 in responding participants.
structure (smiles),measurement,value
"CC1(C)CCC2(CC1)N[C@@H](C(=O)N[C@@H]1CC[C@@H](C(N)=O)OC1)[C@H](c1ccnc(Cl)c1F)[C@]21C(=O)Nc2cc(Cl)ccc21 [Milademetan monotherapy, milademetan tosylate hydrate]",MDS: Marrow CR,1 (11%) n (%)
same,MDS: SD,2 (22%) n (%)
